Results reported in patent US10202350B2, “MCT4 inhibitors for treating disease” (Vettore, LLC, priority 2015, dated 2019).

Key:
MCT4 = MCT4 (Homo sapiens (Human), UniProt O15427); test: MCT4-mediated lactate transport in MDA-MB-231 breast cancer cells; type: cell-based; conditions: MDA-MB-231 cells, native MCT4; 50 mM L-lactate
Method: (§1) 10 μL of a 30 mM DMSO stock of BCECF-AM ester (Life Technologies) is added and the cells are incubated at 37° C. for 5 min. The cells are pelleted (300 g, 5 min), washed once with 1 mL Tyrode's Solution, pH 7.4, re-pelleted (300 g, 5 min), and resuspended in 1 mL Tyrode's Solution, pH 7.4.
(§2) 2.5 μL BCECF-loaded cells, along with either 10 μL DMSO or 100×compound in DMSO, are added to 937.5 μL of Tyrode's Solution in a quartz 1.0 mL cuvette (PerkinElmer, B0631116). […] After establishing baseline BCECF fluorescence (around 10-20 s), 50 μL of 1 M sodium L-lactate (Sigma-Aldrich) is added to the cuvette (final concentration: 50 mM) and rapidly mixed. The time-dependent decrease in BCECF fluorescence (490/440 ratio) may be fit to an exponential decay curve (Prism GraphPad) to determine the rate of lactate transport.
Preparation of BCECF-loaded cells and lactate transport activity may be determined as described for Assay 1.

MCT1 = MCT1 (Homo sapiens (Human), UniProt P53985); test: MCT1-mediated lactate transport in BT20 breast cancer cells; type: cell-based; conditions: native MCT1, 10 mM L-lactate, Table 3
Chain of MCT1 (P53985 whole entry): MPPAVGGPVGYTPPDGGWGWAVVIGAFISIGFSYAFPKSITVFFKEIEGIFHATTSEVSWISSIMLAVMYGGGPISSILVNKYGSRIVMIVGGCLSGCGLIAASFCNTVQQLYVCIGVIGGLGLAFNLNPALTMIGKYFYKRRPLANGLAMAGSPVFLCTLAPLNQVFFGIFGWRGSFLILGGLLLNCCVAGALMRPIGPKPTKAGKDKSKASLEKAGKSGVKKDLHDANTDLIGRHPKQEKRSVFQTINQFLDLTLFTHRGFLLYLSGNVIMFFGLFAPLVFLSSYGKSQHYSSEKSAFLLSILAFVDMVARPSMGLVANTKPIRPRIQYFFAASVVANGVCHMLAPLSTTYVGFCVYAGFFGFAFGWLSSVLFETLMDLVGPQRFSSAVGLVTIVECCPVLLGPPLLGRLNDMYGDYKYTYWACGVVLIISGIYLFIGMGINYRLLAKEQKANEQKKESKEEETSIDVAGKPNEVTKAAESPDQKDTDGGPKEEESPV
Chain of MCT1 (P35613 140-385 partner): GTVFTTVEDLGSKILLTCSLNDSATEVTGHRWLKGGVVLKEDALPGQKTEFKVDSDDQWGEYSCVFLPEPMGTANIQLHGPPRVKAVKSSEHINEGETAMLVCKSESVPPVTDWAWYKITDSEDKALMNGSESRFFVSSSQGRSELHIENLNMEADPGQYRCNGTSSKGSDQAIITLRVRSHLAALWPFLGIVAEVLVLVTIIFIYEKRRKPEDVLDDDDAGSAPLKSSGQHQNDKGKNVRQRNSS
Method: as §1, §2
Assay 4: MCT1-Mediated Lactate Transport in BT20 Breast Cancer Cells.
Preparation of BCECF loaded cells are as described for Assay 1. Lactate transport assay is as described for Assay 1, except 10 mM L-lactate (rather than 50 mM) is added.

Chain of MCT4 (O15427 whole entry, looked up): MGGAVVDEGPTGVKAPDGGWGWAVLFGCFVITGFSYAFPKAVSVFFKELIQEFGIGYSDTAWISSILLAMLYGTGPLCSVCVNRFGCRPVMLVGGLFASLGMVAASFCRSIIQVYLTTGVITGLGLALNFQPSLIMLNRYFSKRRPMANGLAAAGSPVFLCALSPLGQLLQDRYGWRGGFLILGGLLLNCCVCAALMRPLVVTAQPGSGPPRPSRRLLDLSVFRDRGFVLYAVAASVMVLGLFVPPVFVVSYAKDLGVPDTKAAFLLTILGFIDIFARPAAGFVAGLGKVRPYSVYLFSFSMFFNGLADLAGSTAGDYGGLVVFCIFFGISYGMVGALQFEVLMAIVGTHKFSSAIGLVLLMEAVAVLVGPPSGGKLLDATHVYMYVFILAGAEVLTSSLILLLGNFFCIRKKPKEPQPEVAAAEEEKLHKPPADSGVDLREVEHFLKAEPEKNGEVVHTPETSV
Chain of MCT4 (P35613 whole entry partner, looked up): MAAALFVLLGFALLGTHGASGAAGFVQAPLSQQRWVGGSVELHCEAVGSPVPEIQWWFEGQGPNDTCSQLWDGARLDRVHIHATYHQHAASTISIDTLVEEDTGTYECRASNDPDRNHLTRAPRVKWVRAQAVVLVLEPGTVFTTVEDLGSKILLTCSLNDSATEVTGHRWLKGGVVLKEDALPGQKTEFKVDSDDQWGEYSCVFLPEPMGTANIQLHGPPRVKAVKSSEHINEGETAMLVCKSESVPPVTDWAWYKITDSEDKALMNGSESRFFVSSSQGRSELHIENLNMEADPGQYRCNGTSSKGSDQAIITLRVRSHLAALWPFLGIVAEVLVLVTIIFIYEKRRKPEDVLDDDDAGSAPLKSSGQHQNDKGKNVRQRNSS

IC50 (MCT4) [nM]	IC50 (MCT1) [nM]	Structure (SMILES)
30	> 100000	CC(C)(OCc1cc(-c2ccsc2)n(Cc2ccccc2Cl)n1)C(=O)O [Example 24, 2-[[1-[(2-Chlorophenyl)methyl]-5-(3-thienyl)pyrazol-3-yl]methoxy]-2-methyl-propanoic acid]
33	77000	CC(C)(OCc1cc(-c2cccs2)n(Cc2ccccc2Cl)n1)C(=O)O [Example 25, 2-[[1-[(2-Chlorophenyl)methyl]-5-(2-thienyl)pyrazol-3-yl]methoxy]-2-methyl-propanoic acid]
12	15000	CCOc1cccc(-c2cc(COC(C)(C)C(=O)O)nn2Cc2ccccc2Cl)c1 [Example 28, 2-[[1-[(2-Chlorophenyl)methyl]-5-(3-ethoxyphenyl)pyrazol-3-yl]methoxy]-2-methyl-propanoic acid]
3.7	16000	CC(C)Oc1cccc(-c2cc(COC(C)(C)C(=O)O)nn2Cc2ccccc2Br)c1 [Example 29, 2-[[1-[(2-Bromophenyl)methyl]-5-(3-isopropoxyphenyl)pyrazol-3-yl]methoxy]-2-methyl-propanoic acid]
8.8	27000	COc1cccc(-c2cc(COC(C)(C)C(=O)O)nn2Cc2ccccc2Br)c1 [Example 30, 2-[[1-[(2-Bromophenyl)methyl]-5-(3-methoxyphenyl)-1H-pyrazol-3-yl]methoxy]-2-methylpropanoic acid]
53	42000	COc1cccc(-c2cc(COC(C)(C)C(=O)O)nn2Cc2ccccc2C(C)C)c1 [Example 31, 2-[[1-[(2-Isopropylphenyl)methyl]-5-(3-methoxyphenyl)pyrazol-3-yl]methoxy]-2-methyl-propanoic acid]
79	83000	COc1cccc(-c2cc(COC(C)(C)C(=O)O)nn2Cc2ccccc2C)c1 [Example 32, 2-[[5-(3-Methoxyphenyl)-1-(o-tolylmethyl)pyrazol-3-yl]methoxy]-2-methyl-propanoic acid]
9.3	> 11000	CC(C)(OCc1cc(-c2cccc(OC(F)(F)F)c2)n(Cc2ccccc2Cl)n1)C(=O)O [Example 34, 2-[[1-[(2-Chlorophenyl)methyl]-5-[3-(trifluoromethoxy)phenyl]pyrazol-3-yl]methoxy]-2-methyl-propanoic acid]
520	> 100000	CC(C)(OCc1cc(-c2cccc(CN3CCOCC3)c2)n(Cc2ccccc2Cl)n1)C(=O)O [Example 40, 2-[[1-[(2-Chlorophenyl)methyl]-5-[3-(morpholinomethyl)phenyl]pyrazol-3-yl]methoxy]-2-methyl-propanoic acid]
55	1200	COc1cccc(-c2cc(COC3(C(=O)O)CCC3)nn2Cc2ccccc2Cl)c1 [Example 41, 1-[[1-[(2-Chlorophenyl)methyl]-5-(3-methoxyphenyl)pyrazol-3-yl]methoxy]cyclobutanecarboxylic acid]
2.6	–	CC(C)(OCc1cc(-c2cccc(OCC3CCC3)c2)n(Cc2ccccc2Cl)n1)C(=O)O [Example 42, 2-[[1-[(2-Chlorophenyl)methyl]-5-[3-(cyclobutylmethoxy)phenyl]pyrazol-3-yl]methoxy]-2-methyl-propanoic acid]
13	> 33000	CC(C)(OCc1cc(-c2cccc(OCC(F)(F)F)c2)n(Cc2ccccc2Cl)n1)C(=O)O [Example 43, 2-[[1-[(2-Chlorophenyl)methyl]-5-[3-(2,2,2-trifluoroethoxy)phenyl]pyrazol-3-yl]methoxy]-2-methyl-propanoic acid]
1.1	–	CC(C)(OCc1cc(-c2cccc(OCC3CCCC3)c2)n(Cc2ccccc2Cl)n1)C(=O)O [Example 44, 2-[[1-[(2-Chlorophenyl)methyl]-5-[3-(cyclopentylmethoxy)phenyl]pyrazol-3-yl]methoxy]-2-methyl-propanoic acid]
19	12000	CC(C)(OCc1cc(-c2cccc(OCC3CCOCC3)c2)n(Cc2ccccc2Cl)n1)C(=O)O [Example 45, 2-[[1-[(2-Chlorophenyl)methyl]-5-[3-(tetrahydropyran-4-ylmethoxy)phenyl]pyrazol-3-yl]methoxy]-2-methyl-propanoic acid]
142	47000	CC(C)(OCc1cc(-c2cccc(N3CCOCC3)c2)n(Cc2ccccc2Cl)n1)C(=O)O [Example 46, 2-[[1-[(2-Chlorophenyl)methyl]-5-(3-morpholinophenyl)pyrazol-3-yl]methoxy]-2-methyl-propanoic acid]
410	> 100000	CC(C)(OCc1cc(-c2cscn2)n(Cc2ccccc2Cl)n1)C(=O)O [Example 47, 2-([1-[(o-Chlorophenyl)methyl]-5-(1,3-thiazol-4-yl)-1H-pyrazol-3-yl]methoxy)-2-methylpropionic acid]
89	55000	CC(C)(OCc1cc(-c2cccc(C#N)c2)n(Cc2ccccc2Cl)n1)C(=O)O [Example 48, 2-([1-[(o-Chlorophenyl)methyl]-5-(m-cyanophenyl)-1H-pyrazol-3-yl]methoxy)-2-methylpropionic acid]
240	130000	CC(C)(OCc1cc(-c2cncs2)n(Cc2ccccc2Cl)n1)C(=O)O [Example 49, 2-([1-[(o-Chlorophenyl)methyl]-5-(1,3-thiazol-5-yl)-1H-pyrazol-3-yl]methoxy)-2-methylpropionic acid]
70	34000	CN(C)c1cccc(-c2cc(COC(C)(C)C(=O)O)nn2Cc2ccccc2Cl)c1 [Example 50, 2-([1-[(o-Chlorophenyl)methyl]-5-[m-(dimethylamino)phenyl]-1H-pyrazol-3-yl]methoxy)-2-methylpropionic acid]
15	6000	CC(C)c1cccc(-c2cc(COC(C)(C)C(=O)O)nn2Cc2ccccc2Cl)c1 [Example 51, 2-([1-[(2-Chlorophenyl)methyl]-5-[3-(propan-2-yl)phenyl]-1H-pyrazol-3-yl]methoxy)-2-methylpropanoic Acid]
190	84000	COCc1cccc(-c2cc(COC(C)(C)C(=O)O)nn2Cc2ccccc2Cl)c1 [Example 52, 2-([1-[(2-chlorophenyl)methyl]-5-[3-(methoxymethyl)phenyl]-1H-pyrazol-3-yl]methoxy)-2-methylpropanoic acid]
160	> 100000	COc1cccc(-c2cc(COC(C)(C)C(=O)O)nn2Cc2ccccc2)c1 [Example 53, 2-[[1-benzyl-5-(3-methoxyphenyl)-1H-pyrazol-3-yl]methoxy]-2-methylpropanoic acid]
–	> 133000	COc1cccc(-c2cc(COC(C)(C)C(=O)O)nn2-c2ccccn2)c1 [Example 56, 2-[[5-(3-methoxyphenyl)-1-(pyridin-2-yl)-1H-pyrazol-3-yl]methoxy]-2-methylpropanoic acid]
–	78000	COc1cccc(-c2cc(COC(C)(C)C(=O)O)nn2-c2cccc(Cl)c2)c1 [Example 58, 2-[[1-(3-chlorophenyl)-5-(3-methoxyphenyl)-1H-pyrazol-3-yl]methoxy]-2-methylpropanoic acid]
–	81000	COc1cccc(-c2cc(COC(C)(C)C(=O)O)nn2-c2ccc(Cl)cc2)c1 [Example 59, 2-[[1-(4-chlorophenyl)-5-(3-methoxyphenyl)-1H-pyrazol-3-yl]methoxy]-2-methylpropanoic acid]
13	44000	CC(C)COc1cccc(-c2cc(COC(C)(C)C(=O)O)nn2Cc2ccccc2)c1 [Example 60, 2-([1-Benzyl-5-[3-(2-methylpropoxy)phenyl]-1H-pyrazol-3-yl]methoxy)-2-methylpropanoic Acid]
–	9000	CC(C)(OCc1cc(Cc2ccccc2)n(Cc2ccccc2Cl)n1)C(=O)O [Example 77, 2-([5-Benzyl-1-[(2-chlorophenyl)methyl]-1H-pyrazol-3-yl]methoxy)-2-methylpropanoic Acid]
81	–	CC(C)(OCc1cc(-c2cccc(OCC3COC3)c2)n(Cc2ccccc2Cl)n1)C(=O)O [Example 80, 2-[[1-[(2-Chlorophenyl)methyl]-5-[3-(oxetan-3-ylmethoxy)phenyl]pyrazol-3-yl]methoxy]-2-methyl-propanoic Acid]

Structure (SMILES)	IC50 (MCT4) [nM]	IC50 (MCT1) [nM]
CC(C)COc1cccc(-c2cc(COC(C)(C)C(=O)O)nn2Cc2ccccc2F)c1 [Example 26, 2-[[1-[(2-Fluorophenyl)methyl]-5-(3-isobutoxyphenyl)pyrazol-3-yl]methoxy]-2-methyl-propanoic acid]	9.4	27000
CC(C)(OCc1cc(-c2cccc(OCC3CC3)c2)n(Cc2ccccc2Cl)n1)C(=O)O [Example 33, 2-[[1-[(2-Chlorophenyl)methyl]-5-[3-(cyclopropylmethoxy)phenyl]pyrazol-3-yl]methoxy]-2-methyl-propanoic acid]	3.2	9100
CC(C)(OCc1cc(-c2cccc(OC3CCC3)c2)n(Cc2ccccc2Cl)n1)C(=O)O [Example 37, 2-[[1-[(2-Chlorophenyl)methyl]-5-[3-(cyclobutoxy)phenyl]pyrazol-3-yl]methoxy]-2-methyl-propanoic acid]	7.6	8400
